Test system: SKM MYOFIBRIL
Assay: SKM myofibril AC1.4 (ATPase, PK/LDH coupled enzyme system); further: unit not given here
Assay type: biochemical
Settings: screen at pCa=6.5

| Structure (SMILES) | SKM MYOFIBRIL AC1.4 (median) |
| --- | --- |
| Cc1ccn2c(NCc3ccccc3)c(-c3ccccc3O)nc2c1 [2-{7-methyl-3-[benzylamino]-4-hydroimidazo[1,2-a]pyridin-2-yl}phenol] | 2.0618 |
| Oc1ccccc1-c1nc2ccccn2c1NC1CCCC1 [2-[3-(cyclopentylamino)-4-hydroimidazo[1,2-a]pyridin-2-yl]phenol] | 11.2917 |
| NC(=O)c1ccc2nc(-c3ccccc3O)c(NCc3cccc(Cl)c3)n2c1 [3-{[(3-chlorophenyl)methyl]amino}-2-(2-hydroxyphenyl)-4-hydroimidazo[1,2-a]pyridine-6-carboxamide] | 1.2788 |
| Cc1ccc(-c2nc3ccccn3c2NC2CCCCC2)cc1 [cyclohexyl[2-(4-methylphenyl)(4-hydroimidazo[1,2-a]pyridin-3-yl)]amine] | 25.2334 |
| NC(=O)c1ccc2nc(-c3ccccc3O)c(NCc3ccc(F)cc3)n2c1 [3-{[(4-fluorophenyl)methyl]amino}-2-(2-hydroxyphenyl)-4-hydroimidazo[1,2-a]pyridine-6-carboxamide] | 2.0079 |
| Cc1cccn2c(NC3CCCC3)c(-c3ccccc3O)nc12 [2-[3-(cyclopentylamino)-8-methyl-4-hydroimidazo[1,2-a]pyridin-2-yl]phenol] | 11.3023 |
| Oc1ccc(-c2nc3ccc(F)cn3c2NCc2ccc(F)cc2)cc1 [4-(6-fluoro-3-{[(4-fluorophenyl)methyl]amino}-4-hydroimidazo[1,2-a]pyridin-2-yl)phenol] | 26.5123 |
| CC(C)(C)CC(C)(C)Nc1c(-c2ccc(O)cc2)nc2ccccn12 [4-{3-[(1,1,3,3-tetramethylbutyl)amino]-4-hydroimidazo[1,2-a]pyridin-2-yl}phenol] | 23.4246 |
| N#Cc1ccc2nc(-c3ccccc3O)c(NCc3cccc(Cl)c3)n2c1 [3-{[(3-chlorophenyl)methyl]amino}-2-(2-hydroxyphenyl)-4-hydroimidazo[1,2-a]pyridine-6-carbonitrile] | 2.6805 |
| COc1cccc(-c2nc3ccccn3c2NCc2cccc(Cl)c2)c1 [[(3-chlorophenyl)methyl][2-(3-methoxyphenyl)(4-hydroimidazo[1,2-a]pyridin-3-yl)]amine] | 35.6445 |
| Oc1ccc(-c2nc3ccc(Br)cn3c2NC2CCCCC2)cc1 [4-[6-bromo-3-(cyclohexylamino)-4-hydroimidazo[1,2-a]pyridin-2-yl]phenol] | 12.8016 |
| Cc1ccc(-c2nc3cc(C)ccn3c2NC2CCCC2)cc1 [cyclopentyl[7-methyl-2-(4-methylphenyl)(4-hydroimidazo[1,2-a]pyridin-3-yl)]amine] | 4.2349 |
| Oc1ccc(-c2nc3ccccn3c2NCc2ccc(Cl)cc2)cc1 [4-(3-{[(4-chlorophenyl)methyl]amino}-4-hydroimidazo[1,2-a]pyridin-2-yl)phenol] | 21.4002 |
| Oc1ccc(-c2nc3ccc(F)cn3c2NC2CCCC2)cc1 [4-[3-(cyclopentylamino)-6-fluoro-4-hydroimidazo[1,2-a]pyridin-2-yl]phenol] | 26.6981 |
| Cc1ccn2c(NCc3cccc(Cl)c3)c(-c3ncccc3O)nc2c1 [2-(3-{[(3-chlorophenyl)methyl]amino}-7-methyl-4-hydroimidazo[1,2-a]pyridin-2-yl)pyridin-3-ol] | 36.9847 |
| Cc1ccc(CNc2c(-c3ccccc3O)nc3cc(C)ccn23)cc1 [2-(7-methyl-3-{[(4-methylphenyl)methyl]amino}-4-hydroimidazo[1,2-a]pyridin-2-yl)phenol] | 16.3079 |
| CCC(C)(C)Nc1c(-c2cc3ccc(C)c(C)c3nc2O)nc2ccccn12 [3-{3-[(1,1-dimethylpropyl)amino](4-hydroimidazo[1,2-a]pyridin-2-yl)}-7,8-dimethylquinolin-2-ol] | 1.5814 |
| Cc1cn2c(NCc3cccc(Cl)c3)c(-c3ccccc3O)nc2c(C)n1 [2-(3-{[(3-chlorophenyl)methyl]amino}-6,8-dimethyl-4-hydroimidazo[1,2-a]pyrazin-2-yl)phenol] | 6.4593 |
| Oc1ccccc1-c1nc2cc(Br)ccn2c1NCc1cccc(Cl)c1 [2-(7-bromo-3-{[(3-chlorophenyl)methyl]amino}-4-hydroimidazo[1,2-a]pyridin-2-yl)phenol] | 8.3071 |
| COc1cccc(CNc2c(-c3ccccc3O)nc3cc(C)ccn23)c1 [2-(3-{[(3-methoxyphenyl)methyl]amino}-7-methyl-4-hydroimidazo[1,2-a]pyridin-2-yl)phenol] | 10.2909 |
| Oc1ccc(-c2nc3ccccn3c2NCc2ccc(F)cc2F)cc1 [4-(3-{[(2,4-difluorophenyl)methyl]amino}-4-hydroimidazo[1,2-a]pyridin-2-yl)phenol] | 37.1035 |
| CCCCNc1c(-c2ccc(O)cc2)nc2ccccn12 [4-[3-(butylamino)-4-hydroimidazo[1,2-a]pyridin-2-yl]phenol] | 27.9936 |

| Structure (SMILES) | SKM MYOFIBRIL AC1.4 (median) |
| --- | --- |
| Oc1ccc(-c2nc3ccc(-c4ccccc4)cn3c2NC2CCCC2)cc1 [4-[3-(cyclopentylamino)-6-phenyl-4-hydroimidazo[1,2-a]pyridin-2-yl]phenol] | 22.1213 |
| c1csc(-c2nc3ccccn3c2NC2CCCCC2)c1 [cyclohexyl(2-(2-thienyl)(4-hydroimidazo[1,2-a]pyridin-3-yl))amine] | 16.7359 |
| Oc1ccccc1-c1nc2ccc(Br)cn2c1NCc1ccc(F)cc1 [2-(6-bromo-3-{[(4-fluorophenyl)methyl]amino}-4-hydroimidazo[1,2-a]pyridin-2-yl)phenol] | 5.6018 |
| Cc1ccn2c(NCc3ccc(F)cc3)c(-c3ccccc3O)nc2c1 [2-(3-{[(4-fluorophenyl)methyl]amino}-7-methyl-4-hydroimidazo[1,2-a]pyridin-2-yl)phenol] | 1.1306 |
| COC(=O)c1ccc2nc(-c3ccccc3O)c(NCc3ccc(F)cc3)n2c1 [methyl 3-{[(4-fluorophenyl)methyl]amino}-2-(2-hydroxyphenyl)-4-hydroimidazo[1,2-a]pyridine-6-carboxylate] | 4.201 |
| OCc1ccc2nc(-c3ccccc3O)c(NCc3cccc(Cl)c3)n2c1 [2-(3-{[(3-chlorophenyl)methyl]amino}-6-(hydroxymethyl)-4-hydroimidazo[1,2-a]pyridin-2-yl)phenol] | 1.6756 |
| N#Cc1ccc2nc(-c3ccc(O)cc3)c(NC3CCCC3)n2c1 [3-(cyclopentylamino)-2-(4-hydroxyphenyl)-4-hydroimidazo[1,2-a]pyridine-6-carbonitrile] | 46.9669 |
| Cc1cccn2c(NC3CCCCC3)c(-c3ccc(O)cc3)nc12 [4-[3-(cyclohexylamino)-8-methyl-4-hydroimidazo[1,2-a]pyridin-2-yl]phenol] | 8.8767 |
| Cc1ccc2cc(-c3nc4cc(C)ccn4c3NCc3ccc(F)cc3)c(O)nc2c1 [3-(3-{[(4-fluorophenyl)methyl]amino}-7-methyl(4-hydroimidazo[1,2-a]pyridin-2-yl))-7-methylquinolin-2-ol] | 38.7091 |
| Cc1ccn2c(NCc3ccc(Cl)cc3)c(-c3ccccc3O)nc2c1 [2-(3-{[(4-chlorophenyl)methyl]amino}-7-methyl-4-hydroimidazo[1,2-a]pyridin-2-yl)phenol] | 3.3207 |
| CCc1ccc2nc(-c3ccc(O)cc3)c(NC3CCCCC3)n2c1 [4-[3-(cyclohexylamino)-6-ethyl-4-hydroimidazo[1,2-a]pyridin-2-yl]phenol] | 4.3136 |
| Oc1ccccc1-c1nc2cnccn2c1NCc1ccc(F)cc1 [2-(3-{[(4-fluorophenyl)methyl]amino}-4-hydroimidazo[1,2-a]pyrazin-2-yl)phenol] | 4.6013 |
| Cc1ccc2cc(-c3nc4cc(C)ccn4c3NCc3cccc(Cl)c3)c(O)nc2c1 [3-(3-{[(3-chlorophenyl)methyl]amino}-7-methyl(4-hydroimidazo[1,2-a]pyridin-2-yl))-7-methylquinolin-2-ol] | 9.2086 |
| Cc1ccn2c(NC3CCCC3)c(-c3ccc(O)cc3)nc2c1 [4-[3-(cyclopentylamino)-7-methyl-4-hydroimidazo[1,2-a]pyridin-2-yl]phenol] | 4.685 |
| Oc1ccccc1-c1nc2ccccn2c1NCc1cccc(Cl)c1 [2-(3-{[(3-chlorophenyl)methyl]amino}-4-hydroimidazo[1,2-a]pyridin-2-yl)phenol] | 4.2459 |
| Cc1ccn2c(NCc3ccc(F)cn3)c(-c3ccccc3O)nc2c1 [2-(3-{[(5-fluoro(2-pyridyl))methyl]amino}-7-methyl-4-hydroimidazo[1,2-a]pyridin-2-yl)phenol] | 7.3934 |
| COCCNC(=O)c1ccc2nc(-c3ccccc3O)c(NCc3ccc(F)cc3)n2c1 [(3-{[(4-fluorophenyl)methyl]amino}-2-(2-hydroxyphenyl)(4-hydroimidazo[1,2-a]pyridin-6-yl))-N-(2-methoxyethyl)carboxamide] | 4.3059 |
| Oc1ccc(-c2nc3ccccn3c2NCc2ccc(F)cc2)cc1 [4-(3-{[(4-fluorophenyl)methyl]amino}-4-hydroimidazo[1,2-a]pyridin-2-yl)phenol] | 40.3674 |
| NCc1ccc2nc(-c3ccccc3O)c(NCc3cccc(Cl)c3)n2c1 [2-(6-(aminomethyl)-3-{[(3-chlorophenyl)methyl]amino}-4-hydroimidazo[1,2-a]pyridin-2-yl)phenol] | 0.2349 |
| Cc1ccn2c(NCc3ccc(F)cc3)c(-c3ccc(O)cc3)nc2c1 [4-(3-{[(4-fluorophenyl)methyl]amino}-7-methyl-4-hydroimidazo[1,2-a]pyridin-2-yl)phenol] | 44.5161 |
| Cc1ccn2c(NCc3ccc(F)cc3F)c(-c3ccccc3O)nc2c1 [2-(3-{[(2,4-difluorophenyl)methyl]amino}-7-methyl-4-hydroimidazo[1,2-a]pyridin-2-yl)phenol] | 0.959 |
